The record followed here is PubChem BioAssay (NCI).

Each structure is given as a SMILES string.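 Cells were grown in 96-well plates and exposed to each compound for 48 hours at five concentrations; endpoints were interpolated linearly between bracketing concentrations, or set to the highest concentration if not reached. GI50 marks 50% less growth. TGI denotes the concentration required for complete inhibition of growth.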

What all share (assay): inhibition of tumour cell growth, NCI panel, 48 h
In assay [1] the test system is A549 NSCLC.
Assay [2] relates to COLO 205 colon.
In assay [3] the test system is DU-145 prostate.
The test system of assay [4] is HS 578T breast.
For assay [5], the system named is IGROV1 ovarian.
Assay [6] relates to M14 melanoma.
Assay [7] relates to MCF7 breast.
The test system of assay [8] is SK-MEL-5 melanoma.
Assay [9] deals with SN12C renal.
Assay [10] has as its system SR leukemia.
Assay [11] relates to SW-620 colon.
In assay [12] the test system is HT29 colon.
For assay [13], the system named is RXF 393 renal.
In assay [14] the test system is SF-268 CNS.
Assay [15] has as its system LOX IMVI melanoma.

With `C=C1C2C[C@@H]3O[C@H]4C[C@H]5O[C@@]6(C[C@@H]7O[C@]8(C[C@H](C)[C@@H]9O[C@@H]%10CC(C=O)O[C@@H]%10C[C@@H]9O8)C[C@H](C)[C@@H]7O6)C[C@H]5O[C@H]4[C@H](C)[C@H]3OC(=O)C[C@H]3CC[C@@H]4OC5[C@H]6O[C@]7(CC[C@H]8CC(=C)[C@H](CC[C@@H](C[C@H]1C)O2)O8)CC6O[C@@H]5[C@@H](O7)[C@H]4O3` (some centres not stated), the TGI is above 1 µM in assay [1]; 0.00103 µM in assay [2]; above 1 µM in [3]; below 0.0001 µM in assay [4]; above 1 µM in assay [5]; above 1 µM in assay [6]. For the same molecule, the TGI in assay [7], in [8], in assay [9], in assay [10] and in assay [11] was above 1 µM each time.
Turning to `COc1ccc(C[n+]2cccc(O)c2)cc1`, the TGI in assay [1], in assay [3], in assay [4], in assay [12], in [5] and in [6] was above 100 µM each time. Further, the TGI in assay [7], in [13], in [14], in [8], in assay [9] and in assay [10] was above 100 µM throughout. The same molecule had a TGI in assay [11] above 100 µM.
As to `COc1ccc(C(=O)N2CCN(c3ccc4c(c3)OCC(=O)N4)CC2)cc1OC`, the TGI in [1], in [2], in assay [3], in assay [4], in assay [12] and in [5] was above 100 µM in each case. In addition, the TGI in assay [15], in assay [6], in assay [7], in assay [14], in assay [8] and in assay [9] was above 100 µM each time. The TGI in assay [10] and in assay [11] was above 100 µM throughout.
In the case of `CC(=O)c1cc(CC2Cc3cc4c(cc3C2=O)CCC4)cc2c1CCC2` (configuration not stated), the TGI is above 100 µM in [1]; 76.2 µM in [2]; above 100 µM in assay [3]; above 100 µM in assay [4]; above 100 µM in [12]; above 100 µM in assay [5]. Moreover, the TGI in assay [15] was above 100 µM; in [6] it was above 100 µM; in assay [7], above 100 µM; in assay [14], above 100 µM; in assay [8], 61.2 µM; in assay [9], above 100 µM. Besides, the TGI in assay [10] and in assay [11] was above 100 µM in each case.
For the molecule `Cc1cccc2c(N)c3cccc(C(=O)NCC[N+](C)(C)Cc4ccc(S(C)(=O)=O)cc4)c3nc12`, the TGI in assay [1], in assay [2], in [3], in assay [4], in assay [12] and in assay [5] was above 100 µM each time. Further, the TGI in assay [15], in assay [6], in assay [7], in assay [13], in assay [14] and in assay [8] was above 100 µM in each case. Besides, the TGI in assay [9] and in [11] was above 100 µM each time.
As for `O=[N+]([O-])c1ccc(Cc2nc3cc4ccccc4cc3[nH]2)cc1C(F)(F)F`, the TGI in assay [1] was 64.8 µM; in assay [2] it was 34.3 µM; in [3] it was 57.2 µM; in [4], 49.9 µM; in assay [12], above 100 µM; in assay [15], above 100 µM. Besides, the TGI in assay [6] turned out to be 25.2 µM; in assay [7], 55.5 µM; in [13], 32.1 µM; in assay [14], 39 µM; in [8] it was 25.1 µM; in assay [9] it was 38 µM. In addition, the TGI in assay [11] amounted to 62.2 µM.
As for `CC(=O)c1cc2c(s1)C(=O)c1ccsc1C2=O`, the TGI is 4.2 µM in assay [1]; 40.5 µM in assay [2]; 0.743 µM in [3]; 0.561 µM in assay [4]; 4.19 µM in assay [12]; 3.4 µM in assay [5]. In addition, the TGI in assay [15] was determined as 0.0782 µM; in [6], 1.2 µM; in [7] it was 1.68 µM; in assay [13], 0.683 µM; in assay [14], 1.01 µM; in assay [8] it was 0.262 µM. In addition, the TGI in assay [9] turned out to be 0.352 µM; in assay [11] it was 0.37 µM.
With `CCN(CC)C(=S)/N=C(\SC(=S)N(CC)CC)c1ccccc1`, the TGI in assay [1] is above 100 µM; in assay [2], 72.5 µM; in assay [3], above 87.9 µM; in assay [4], above 100 µM; in assay [12], above 100 µM; in assay [5], above 100 µM. Also, the TGI in assay [15] is 36.1 µM; in [6], above 100 µM; in [7] it was above 100 µM; in assay [13], above 100 µM; in assay [14] it was above 100 µM; in [8], above 100 µM. The TGI in assay [9] and in assay [11] was above 100 µM in each case.
As to `O=c1oc2ccc3ccccc3c2cc1-c1nc(-c2ccc([N+](=O)[O-])cc2)n[nH]1`, the TGI in [1] is above 100 µM; in [2] it was above 100 µM; in [3], above 100 µM; in assay [4] it was 45.6 µM; in assay [12], above 100 µM; in assay [5], 51.8 µM. Besides, the TGI in assay [15] is above 100 µM; in assay [6] it was above 100 µM; in assay [7] it was above 100 µM; in assay [14], 4.56 µM; in assay [8] it was above 100 µM; in [10], above 100 µM. Besides, the TGI in assay [11] was above 100 µM.
In the case of `Cc1ccc(N=NN(C)C(C)C(O)Cc2ccccc2)cc1` (configuration not stated), the TGI in [1], in assay [2], in assay [3], in [4], in [12] and in [5] was above 100 µM in each case. The TGI in [6], in assay [7], in [13], in [14], in assay [8] and in assay [9] was above 100 µM in each case. In addition, the TGI in assay [11] was above 100 µM.
Take `Cc1ccc(S(=O)(=O)NN=C2C(C)(C)CC2(C)C)cc1`: the TGI in assay [1], in assay [2], in assay [3], in assay [4], in assay [12] and in assay [5] was above 100 µM each time. For the same molecule, the TGI in assay [15], in [6], in assay [7], in [13], in assay [14] and in assay [8] was above 100 µM each time. Moreover, the TGI in assay [9] and in assay [11] was above 100 µM in each case.
In the case of `CCC(=O)N(c1ccccc1)C(C)CN1CCC(O)(c2cccc(C(F)(F)F)c2)CC1` (configuration not stated), the TGI is above 100 µM in assay [1]; 28.5 µM in [2]; 99.7 µM in assay [4]; 27.2 µM in [12]; above 100 µM in assay [5]; 35 µM in assay [15]. The TGI in [6] was 33.4 µM; in [13], above 100 µM; in assay [8], 34.9 µM; in assay [9], above 100 µM; in [11], above 100 µM.
Turning to `Clc1ccc(OCc2nnc3sc(SSc4nn5c(COc6ccc(Cl)cc6)nnc5s4)nn23)cc1`, the TGI in assay [1], in assay [2], in assay [3], in [4], in assay [12] and in assay [5] was above 100 µM in each case. The TGI in assay [15], in [6], in assay [7], in assay [14], in assay [8] and in assay [9] was above 100 µM each time. For the same molecule, the TGI in assay [10] and in assay [11] was above 100 µM throughout. Also, the figures for the GI50 in assay [7] and in assay [10] were 45 µM and 14.2 µM, respectively.
`O=C(NC1CCN(Cc2ccccc2)CC1)c1cccc(I)c1`: the TGI in [1] was above 100 µM; in assay [2] it was 32.5 µM; in [3], above 100 µM; in assay [4], 83 µM; in assay [12], 43.7 µM; in [5], above 100 µM. Further, the TGI was 37.8 µM in [15]; 30.9 µM in assay [6]; above 100 µM in assay [13]; above 100 µM in assay [14]; 31.2 µM in assay [8]; above 100 µM in assay [9]. Also, the values for the TGI in assay [10] and in assay [11] were 80.3 µM and 30.9 µM, respectively.
With `O=C1NC(=S)N/C1=C\c1ccc(Cl)cc1`, the TGI in assay [1], in assay [2], in assay [3], in assay [4], in [12] and in assay [5] was above 100 µM throughout. Moreover, the TGI in assay [15], in assay [6], in assay [7], in assay [13], in assay [14] and in assay [8] was above 100 µM throughout. Besides, the TGI in assay [9] and in assay [11] was above 100 µM throughout.
As for `COc1ccc(C2CC(c3ccc(NS(=O)(=O)c4cc([N+](=O)[O-])ccc4C)cc3)=NN2S(=O)(=O)c2cc([N+](=O)[O-])ccc2C)cc1` (configuration not stated), the TGI in assay [1], in assay [2], in assay [3], in [12], in assay [5] and in assay [15] was above 100 µM throughout. Further, the TGI in assay [6] was above 100 µM; in assay [7], above 100 µM; in assay [13], above 100 µM; in assay [14], 79.9 µM; in assay [8] it was above 100 µM; in assay [9], above 100 µM. For the same molecule, the TGI in [10] and in assay [11] was above 100 µM throughout.
Turning to `O=C(NC(=O)c1ccccc1)OC(c1ccccc1)C1CO1` (configuration not stated), the TGI in assay [1], in [2], in assay [3], in assay [4], in [12] and in [5] was above 100 µM in each case. The TGI in assay [15], in [6], in assay [7], in assay [13], in [14] and in assay [8] was above 100 µM throughout. Also, the TGI in assay [9] and in assay [11] was above 100 µM each time.
Consider `N#CC(c1ccccc1)N(CCc1ccccc1)C(=O)c1ccc(C(=O)N(CCc2ccccc2)C(C#N)c2ccccc2)cc1` (configuration not stated), for which the TGI in assay [1] was above 100 µM; in assay [2], 55.6 µM; in assay [3], above 100 µM; in assay [4], 39.1 µM; in [12] it was 38.6 µM; in assay [5], 57 µM. The TGI in assay [15] is 37 µM; in assay [6], 79 µM; in assay [7], above 100 µM; in [13], 61.3 µM; in assay [14], 55.2 µM; in assay [8], 27.2 µM. Further, the TGI in assay [9] amounted to 38.3 µM; in assay [11], 58.7 µM.
`CC1=NNC(=O)C1C1CC(c2c[nH]c3ccccc23)=NN(c2ccccc2)C1=O` (configuration not stated): the TGI in assay [1], in [2], in [3], in assay [4], in [12] and in assay [5] was above 100 µM each time. Further, the TGI in [15], in assay [6], in assay [13], in assay [14], in [8] and in assay [9] was above 100 µM each time. Also, the TGI in assay [11] is above 100 µM.
